Patent US20240239814A1, “Complexes Of CU(I) As Antitumor Agents” (priority 2021, published 2024)
Like-named read-outs stand apart in the source and are kept apart here. Marks after values point to notes of the source that are not given here.

Columns and labels:
proteasome = settings: cited from earlier work
[1] = system: human cancer cell lines endowed with acquired or natural resistance to CDDP or to OXP; settings: fold lower IC50 in resistant cell lines; cited from earlier work
[2] = system: human non transformed cells; settings: average IC50 normal cells / average IC50 malignant cells; cited from earlier work
[3] = compared with CDDP; cited from earlier work
[4] = system: LoVo colon cancer spheroids; settings: cited from earlier work
[5] = animals of the Lewis Lung Carcinoma model; cited from earlier work
[6] = cited from earlier work
[7] = system: panel of human cancer cells; settings: 2D monolayer, cited from earlier work
Lewis Lung Carcinoma = settings: different schedules, compared with CDDP; cited from earlier work
[8] = system: human colorectal cancer xenografts; settings: oxaliplatin-sensitive and resistant models; cited from earlier work
[9] = system: HCT-15 colon cancer spheroids; settings: HCT-15 spheroids; cited from earlier work
[10] = Description: (§1) The mice were purchased from Charles River, Italy, housed in steel cages under controlled environmental conditions (constant temperature, humidity, and 12 h dark/light cycle), and alimented with commercial standard feed and tap water ad libitum. Animals were observed daily, and body weight and food intake recorded. The Lewis lung carcinoma (LLC) cell line was purchased from ECACC, UK. The LLC cell line was maintained in D-MEM (Euroclone) supplemented with 10% heat-inactivated FBS (Euroclone), 10 mM L-glutamine, 100 U mL^−1 penicillin, and 100 μg mL^−1 streptomycin in a 5% CO2 air incubator at 37° C. […] At day 15, animals were sacrificed, the legs were amputated at the proximal end of the femur, and the inhibition of tumor growth was determined according to the difference in weight of the tumor-bearing leg and the healthy leg of the animals expressed as % referred to the control animals. Body weight was measured every two days and was taken as a parameter for systemic toxicity. All the values are the means±S.D. of not less than three measurements. Multiple comparisons were made by Tukey-Kramer test (** p<0.01; * p or °p<0.05).
(§2) For the assessment of the adverse side effects, changes in body weights of tumor-bearing mice were monitored daily (FIG. 1).

[11] = system: murine Lewis lung carcinoma (LLC); test: In vivo anticancer activity toward Lewis lung carcinoma; set-up: species or system C57BL mice; settings: for Average tumor weight (mean ± SD, g) / Inhibition of tumor growth (%): daily i.p. from day 9, measured at day 15, 6: 5 mg kg^−1, 9: 3 mg kg^−1, cisplatin: 1.5 mg kg^−1; for Inhibition of tumor growth (%): referred to control animals
Description: as §1, §2
Starting from day 9 after tumor implantation, tested compounds were daily administered i.p. At day 15, mice were sacrified and tumor growth was detected as described above.

[12] = system: human colon carcinoma cells HCT-15; test: MTT cytotoxicity assay, 72 h, HCT-15; type: cell-based; settings: MTT test, mean ± SD
Description: (§3) Human breast (MCF-7), lung (H157), pancreatic (PSN-1) and colon (HCT-15 and LoVo) carcinoma cell lines were obtained from the American Type Culture Collection (ATCC, Rockville, MD). A431 are human cervical carcinoma cells kindly provided by Prof. F. Zunino (Molecular Pharmacology Unit, Experimental Oncology and Molecular Medicine, Istituto Nazionale dei Tumori, Milan, Italy). […] G. Marverti (Dept. of Biomedical Science, University of Modena, Italy).
(§4) Briefly, depending upon the growth characteristics of the cell line, 3-8×10^3 cells well^−1, were seeded in 96-well microplates in growth medium (100 μL) and then incubated at 37° C. in a 5% carbon dioxide atmosphere. After 24 h, the medium was removed and replaced with a fresh one containing the compound to be studied, at the appropriate concentration, dissolved in 0.9% sodium chloride solution just before use. Triplicate cultures were established for each treatment. After 72 h, each well was treated with 10 μL of a 5 mg mL^−1 MTT saline solution and, after 5 h of incubation, 100 μL of a sodium dodecylsulfate (SDS) solution in 0.01 M HCl were added. After an overnight incubation, the inhibition of cell growth induced by the tested complexes was determined by measuring the absorbance of each well at 570 nm using a Bio-Rad 680 microplate reader. Mean absorbance for each drug dose was expressed as percentage of the control and plotted vs. drug concentration. Dose-response curves were fitted and IC50 values were calculated with four parameter logistic model (4PL).
(§5) The cytotoxicity was evaluated by means of the MTT test for 72 h treatment with increasing concentrations of the tested compounds.
(§6) Cytotoxic activity was examined against a panel of human tumor cell lines. […] The growth inhibitory effect was evaluated by means of MTT test. Cells (5-8×10^3 mL^−1, depending on the growth characteristics of the cell line) were treated for 72 h with increasing concentrations of tested compounds. […] SD=standard deviation, -=not detected.

[13] = system: human ovarian cancer cells 2008; test: MTT cytotoxicity assay, 72 h, 2008
Description: as §3, §4, §5, §6, §5, §6

[14] = system: human breast carcinoma cells MCF-7; test: MTT cytotoxicity assay, 72 h, MCF-7; type: cell-based; settings: MTT test, mean ± SD
Description: as §3, §4, §5, §6

[15] = system: human pancreatic carcinoma cells PSN-1; test: MTT cytotoxicity assay, 72 h, PSN-1; type: cell-based; settings: MTT test, mean ± SD
Description: as §3, §4, §5, §6

[16] = system: human lung carcinoma cells H157; test: MTT cytotoxicity assay, 72 h, H157; type: cell-based; settings: MTT test, mean ± SD
Description: as §3, §4, §5, §6

[17] = system: human cervical carcinoma cells A431; test: MTT cytotoxicity assay, 72 h, A431; type: cell-based; settings: MTT test, mean ± SD
Description: as §3, §4, §5, §6

LoVo MDR cells = test: MTT cytotoxicity assay, 72 h, LoVo MDR (multidrug resistant); type: cell-based, human; settings: MTT test, mean ± SD
Description: as §3, §4
(§7) A LoVo cell line retaining a multidrug resistance phenotype was also considered (LoVo MDR). Cross-resistance profiles were evaluated by means of the resistance factor (RF), which is defined as the ratio between the IC50 value for the resistant cells and that arising from the sensitive cells (Table 3).
Cells (5×10^3 mL-1) were treated for 72 h with increasing concentrations of tested compounds. Cytotoxicity was assessed by MTT test. […] Resistant Factor (in brackets) is defined as IC50 resistant/parent line. […]

[18] = system: human colon cancer cells LoVo; test: MTT cytotoxicity assay, 72 h, LoVo; type: cell-based; settings: MTT test, mean ± SD
Description: Triplicate cultures were established for each treatment.
. A LoVo cell line retaining a multidrug resistance phenotype was also considered (LoVo MDR). Cross-resistance profiles were evaluated by means of the resistance factor (RF), which is defined as the ratio between the IC50 value for the resistant cells and that arising from the sensitive cells (Table 3).
Cytotoxicity was assessed by MTT test. […]. Resistant Factor (in brackets) is defined as IC50 resistant/parent line.

LoVo-OXP cells = test: MTT cytotoxicity assay, 72 h, LoVo-OXP (oxaliplatin resistant); type: cell-based, human; settings: MTT test, mean ± SD
Description: as §3, §4, §7
Cells (5×10^3 mL-1) were treated for 72 h with increasing concentrations of tested compounds. Cytotoxicity was assessed by MTT test. […] Resistant Factor (in brackets) is defined as IC50 resistant/parent line.

[19] = system: panel of human tumor cell lines; test: Average cytotoxic activity over the cell panel (MTT) compared with reference drugs; settings: on average over the cell panel
Description: as §4, §5
Cytotoxic activity was examined against a panel of human tumor cell lines. […] The growth inhibitory effect was evaluated by means of MTT test. […] SD=standard deviation, -=not detected.

[20] = read-out: IC50 2008, MTT test, mean ± SD, Table 1

Which “effect on proteolytic activities of proteasome” value (proteasome) does the source give for `F[P-](F)(F)(F)(F)F.OCP(CO)CO.OCP(CO)CO.OCP(CO)CO.OCP(CO)CO.[Cu+]` [[Cu(thp)4][PF6]] here?
Its value is “inhibit the proteolytic activities of proteasome”.

And the “IC50 relative to the reference metallodrugs” value [1]?
The value was “up to 35 fold”.

And the “selectively index relative to CDDP” value [2]?
Its value is “about 30 times”.

What about the “selectively index relative to OXP” value [2] of the same compound?
The value was 3 times.

And the “median lethal doses (LD50) and maximum tolerated doses (MTD)” value [3]?
Its value is “significantly higher that those recorded with CDDP”.

What about the “IC50 relative to OXP” value [4] of the same compound?
Its value is “very similar to those of OXP”.

And the “clinical signs of toxicity” value [5]?
The value was “no clinical signs of toxicity and no anorexia”.

And the “solubility and stability in water solution” value [6]?
The value was “highly soluble and stable in water solution”.

And the “cytotoxicity relative to CDDP” value ([7]; fold more cytotoxic than CDDP)?
Its value is “up to 50 fold”.

And the “cytotoxicity relative to OXP” value ([7]; fold more cytotoxic than OXP)?
The value was at most 30 fold.

What about the “inhibition of proliferation of tumor cell population in vivo” value (Lewis Lung Carcinoma) of the same compound?
Its value is “superior to that induced by the gold-standard drug CDDP”.

And the “efficacy of chemotherapy in xenografts” value [8]?
Its value is “extremely effective in both oxaliplatin-sensitive and resistant models”.

What about the “IC50 relative to OXP” value [9] of the same compound?
Its value is “very similar to those of OXP”.

For `N.N.[Cl][Pt][Cl]` [cisplatin, cis-diamminedichloroplatinum(II), reference compound], which body weight loss ([10]; mouse, in vivo, ip) is on record?
The body weight loss was over 20%.

What about the “Average tumor weight (mean ± SD, g)” value [11] of the same compound?
The value was 0.119 ± 0.10** g.

What about the “Inhibition of tumor growth (%)” value [11] of the same compound?
The value was 79.8%.

And the IC50 [12]?
The IC50 was 15.3 ± 2.6 µM.

What about the IC50 [13, 20] of the same compound?
The IC50 was 2.2 ± 0.5 µM.

What about the IC50 ([13]; read-out: IC50 2008, MTT test, mean ± SD, Table 2) of the same compound?
The IC50 was 2.2 ± 0.5 µM.

And the IC50 [14]?
The IC50 was 7.6 ± 0.2 µM.

What about the IC50 [15] of the same compound?
The IC50 was 18.3 ± 3.1 µM.

And the IC50 [16]?
Its IC50 is 2.1 ± 0.9 µM.

What about the IC50 [17] of the same compound?
The IC50 was 2.1 ± 0.8 µM.

For `F[B-](F)(F)F.O=Cc1ccccc1P(c1ccccc1)c1ccccc1.O=Cc1ccccc1P(c1ccccc1)c1ccccc1.[Cu+]` [Compound 9, Bis[2-(diphenylphosphanyl)benzaldehyde]copper(I) tetrafluoroborate], which “tolerability compared with cisplatin” value ([10]; doses 5 and 3 mg kg^−1 represent ⅓ of the MTD) is on record?
The value was “better tolerated than cisplatin”.

What about the “reduction of the tumor mass” value ([11]; 3 mg kg^−1 daily i.p., day 15) of the same compound?
Its value is 83%.

And the “Average tumor weight (mean ± SD, g)” value [11]?
The value was 0.098 ± 0.06** g.

And the “Inhibition of tumor growth (%)” value [11]?
Its value is 83.4%.

What about the IC50 [12] of the same compound?
Its IC50 is 0.8 ± 0.2 µM.

And the IC50 (LoVo MDR cells)?
The IC50 was 0.8 ± 0.5 µM.

What about the IC50 [13, 20] of the same compound?
The IC50 was 0.6 ± 0.1 µM.

What about the IC50 [14] of the same compound?
The IC50 was 1.3 ± 0.3 µM.

And the IC50 [15]?
Its IC50 is 1.1 ± 0.5 µM.

What about the IC50 [18] of the same compound?
The IC50 was 0.6 ± 0.2 µM.

What about the IC50 [16] of the same compound?
Its IC50 is 1.5 ± 0.2 µM.

What about the IC50 [17] of the same compound?
Its IC50 is 4.7 ± 0.6 µM.

What about the IC50 (LoVo-OXP cells) of the same compound?
The IC50 was 1.1 ± 0.6 µM.

What about the “average cytotoxic activity relative to cisplatin” value ([19]; times more effective than cisplatin) of the same compound?
Its value is 4.8 times.

And the “average cytotoxic activity relative to oxaliplatin” value ([19]; times more effective than oxaliplatin)?
The value was 3.8 times.
